Assay results from publication PMC7717691, “Design, synthesis, and anticonvulsant effects evaluation of nonimidazole histamine H3 receptor antagonists/inverse agonists containing triazole moiety” (Journal of Enzyme Inhibition and Medicinal Chemistry, 2020).
Entries after “also recorded” stand apart in the source; their conditions may differ. Where two headings read alike, the source gives them in different places.

Columns and labels:
H3R [1] = biological target: T1, H3R (Homo sapiens, UniProt Q9Y5N1); assay: CRE-driven luciferase reporter gene assay, H3R antagonistic activity; assay type: cell-based; details: for % Antagonism 100 nM: 100 nM compound; for % Antagonism 100 nM / % Antagonism 1 μM: HEK-293 cells expressing human H3R, mean ± SD of three experiments; for % Antagonism 1 μM: 1 μM compound
T1 construct: expressed in transfected cells
T1 sequence (Q9Y5N1 whole entry): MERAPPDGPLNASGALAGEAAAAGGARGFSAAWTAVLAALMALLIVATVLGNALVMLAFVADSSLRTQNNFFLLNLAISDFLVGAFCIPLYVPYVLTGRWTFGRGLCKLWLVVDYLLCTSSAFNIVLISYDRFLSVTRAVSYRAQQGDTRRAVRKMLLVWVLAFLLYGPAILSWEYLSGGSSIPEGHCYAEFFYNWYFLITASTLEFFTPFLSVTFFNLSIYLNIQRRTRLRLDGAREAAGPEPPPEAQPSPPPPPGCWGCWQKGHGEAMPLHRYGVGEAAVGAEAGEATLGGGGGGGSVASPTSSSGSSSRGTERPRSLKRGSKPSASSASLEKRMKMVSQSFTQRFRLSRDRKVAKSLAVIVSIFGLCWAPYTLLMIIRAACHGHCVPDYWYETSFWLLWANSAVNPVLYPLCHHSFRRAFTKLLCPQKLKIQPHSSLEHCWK
Experimental: cAMP-response element (CRE) reporter gene assay has been extensively used to evaluate the efficacy of GPCR antagonists or agonists. […] Initially, compounds and positive controls were tested at two concentrations (100 nM and 1 µM) to obtain the preliminary investigation of their H3R antagonistic activities. In the assays, the antagonistic activities was positively correlated with the rise of the fluorescence value and indicated by the % antagonism. For the prominent compounds IC50 values were determined at additional assays.
Human thalamus poly-A RNA (Clontech, Palo Alto, CA, USA) was used to clone the hH3R gene by RT-PCR. DNA PCR primers were designed in the light of the reported human histamine receptor gene sequences (GenBank accession no.AF140538). HEK-293 cells were cultured and transfected for the luciferase assay. The detailed procedures were described in the previous publication.
Stable HEK-293 cells, which had been co-transfected with H3R and pCRE-Luc, were seeded in a 96-well plate overnight, and were grown to 90–95% confluence[43]^,[44]. Then the cells were treated with various concentrations of tested compounds in serum-free DMEM and incubated for 20 min. Cells were then stimulated with 100 nM Histamine in serum-free DMEM containing 2 µM Forskolin and incubated for 4 h at 37 °C. Firefly luciferase assay kits (Ken-real, Shanghai, China) were used to determine the luciferase activity.

intracellular cAMP = assay: Effect of compounds administrated alone on the level of intracellular cAMP; assay type: cell-based; details: compound alone; ANOVA followed by Dunnett's test; Figure 2
Source text: It is well known that H3R is a GPCR coupled with Gαi. When the ligand (histamine) binds to H3R, the dissociated Gαi inhibits the activity of adenylate cyclase (AC) and down-regulates the level of intracellular cAMP. In this CREs driven luciferase assay, when cells were pre-treated by H3R antagonists, the downregulation of cAMP would be inhibited, and the level of intracellular cAMP would regain to the initial level.

H3R [2] = biological target: T1, H3R; assay: CRE-luciferase assay, H3R inverse agonist activity (forskolin-stimulated transfected HEK-293 cells); assay type: cell-based; details: 10 µM forskolin plus compound; seven concentrations; read-out: H3R inverse agonistic activity EC50
Experimental: The raise of luciferase activity after adding compound represented the inverse agonistic activity. The EC50 was calculated by seven concentrations.

MES-induced convulsions = MES-induced convulsions model; assay type: in vivo; details: mice; for protection against MES-induced convulsions (reduction or abolition of THLE): i.p.; for protection against MES-induced convulsions in different doses: Figure 7
Source text: Protection for the mice was defined as the reduction or abolition of the tonic hind limb extension (THLE) in the MES model in mice.
Ear stimulation with alternating current (0.2 s, 60 Hz, 50 mA) was used to induce the seizures in mice. The reduction or abolition of the hind limb tonic extension (THLE) of mice was considered protective against the MES-induced seizures[29]^,[48]. […]

[3] = Rotarod test (neurotoxicity); assay type: in vivo; details: 10 and 20 mg/kg
Source text: To exclude the possibility that the anticonvulsant activity of 3m was connected with sedative effect, we carried out a rotarod test for 3m.

MES [4] = details: cited from earlier work
PTZ [5] = details: cited from earlier work
PTZ-induced convulsions = PTZ-induced convulsions model; assay type: in vivo; details: mice, PTZ 85 mg/kg s.c.
Experimental: To investigate the anticonvulsive effects, all the target compounds (3a-3q) were screened in the MES-induced and PTZ-induced convulsion models in mice. Compounds were administered intraperitoneally (i.p.) to mice at dosage of 10 mg/kg in the both models. PIT and valproic sodium (VPA) were used as positive controls in the tests.
PTZ (85 mg/kg) was injected subcutaneously to induce seizures. […] The following are the specific meaning of graded scores: score 0 = normal, score 1 = eyelids or facial twitches, score 2 = agitation with body twisting, score 3 = myo-clonic jerks or rearing, score 4 = turn over into one side position or running violently, and score 5 = turn over into back position, limbs tonic extension, or die during the experiment period.

MES [6] = details: 10 mg/kg i.p.; ref not printed (Figure 1); cited from earlier work
PTZ [7] = details: 10 mg/kg i.p.; ref not printed (Figure 1); cited from earlier work
[8] = system: human photosensitivity model; details: dose ranges of 30–60 mg, alone or in combination with other AEDs; cited from earlier work
[9] = 10 mg/kg, 30 min before stimulation, vs saline group

Compound: Clc1ccc(-c2nncn2-c2ccc(OCCCN3CCCCC3)cc2)cc1 [Compound 3m, 1-(3-(4-(3-(4-chlorophenyl)-4H-1,2,4-triazol-4-yl)phenoxy)propyl)piperidine]
- % Antagonism 100 nM (H3R [1]): 201.12 ± 12.63%
- % Antagonism 1 μM (H3R [1]): 203.92 ± 8.44%
- IC50 (H3R [1]; CRE luciferase assay, HEK-293 cells, Table 1): 5.92 nM
- effect on the level of cAMP when treated alone (intracellular cAMP): no significant effects
- EC50 (H3R [2]): 129 nM
- protection against MES-induced seizures when co-treated with RAMH (MES-induced convulsions; 10 mg/kg i.p. plus RAMH 10 mg/kg i.p.): fully abrogated; also recorded: lost its original protective effect
- protection against MES-induced convulsions (reduction or abolition of THLE) (MES-induced convulsions; [9]): moderate protection
- protection against MES-induced convulsions in different doses (MES-induced convulsions): dose dependent
- neurotoxicity in rotarod test [3]: no neurotoxicity
- melting point: 165 to 167 °C

Compound: CCCCCCCOc1ccc2c(c1)-c1nncn1CCO2 [II]
- MES (mice) (MES [4]; 10 mg/kg i.p.): protection
- PTZ (mice) (PTZ [5]; 30 mg/kg i.p.): protection

Compound: Clc1ccc(CCCOCCCN2CCCCC2)cc1 [PIT, Pitolisant, reference compound]
- % Antagonism 100 nM (H3R [1]): 54.16 ± 7.33%
- % Antagonism 1 μM (H3R [1]): 246.29 ± 21.48%
- protection against MES-induced convulsions (reduction or abolition of THLE) (MES-induced convulsions; [9]): moderately
- protection against MES-induced convulsions (THLE) (MES-induced convulsions; 20 mg/kg): fully abrogate the tonic hind limb extension; also recorded: fully abrogate the THLE
- protection against MES-induced convulsions in different doses (MES-induced convulsions): dose-dependently
- protection against PTZ-induced convulsions (PTZ-induced convulsions; 10 mg/kg i.p.): failed to protect
- MES (rats) (MES [6]): protection
- PTZ (rats) (PTZ [7]): no protection
- EEG profile in the human photosensitivity model [8]: favourable EEG profile in a dose-dependent manner

Compound: S=C(NC1CCCCC1)N1CCC(c2cnc[nH]2)CC1 [Thioperamide]
- MES (mice) (MES [4]; 10 & 15 mg/kg i.p.): protection
- PTZ (mice) (PTZ [5]; 7.5 & 15 mg/kg i.p.): protection

Compound: CCCC(CCC)C(=O)O [VPA, Valproic acid, reference compound]
- protection against MES-induced convulsions (reduction or abolition of THLE) (MES-induced convulsions; 300 mg/kg): potently
- protection against PTZ-induced convulsions (PTZ-induced convulsions; 300 mg/kg i.p.): full protection
